Test results reported in patent US11542255B2, “Sulfonylureas and sulfonylthioureas as NLRP3 inhibitors” (Inflazome Limited, priority 2017, dated 2023).
Where a name gives a salt, the structure may show the parent alone.

How the values were obtained:
NLRP3 [1] = biological target: T1, NLRP3 (Homo sapiens, UniProt Q96P20); assay: THP-1 cells pyroptosis assay (LPS + nigericin, resazurin readout); type: cell-based; design: Seed THP-1 cells (25,000 cells/well) containing 1.0 μg/ml LPS in 40 μl of RPMI medium; host or cells: THP-1 cells; settings: NLRP3 inhibitory activity, 1.0 μg/ml LPS, 5 μM nigericin
Protocol: THP-1 cells (ATCC #TIB-202) were grown in RPMI containing L-glutamine (Gibco #11835) supplemented with 1 mM sodium pyruvate (Sigma #S8636) and penicillin (100 units/ml)/streptomycin (0.1 mg/ml) (Sigma #P4333) in 10% Fetal Bovine Serum (FBS) (Sigma #F0804). The cells were routinely passaged and grown to confluency (˜10^6 cells/ml). On the day of the experiment, THP-1 cells were harvested and resuspended into RPMI medium (without FBS). The cells were then counted and viability (>90%) checked by Trypan blue (Sigma #T8154). Appropriate dilutions were made to give a concentration of 625,000 cells/ml. To this diluted cell solution was added LPS (Sigma #L4524) to give a […] Final Assay Concentration (FAC). 40 μl of the final preparation was aliquoted into each well of a 96-well plate. The plate thus prepared was used for compound screening.
The following method step-by-step assay was followed for compound screening. • 1. Seed THP-1 cells (25,000 cells/well) containing 1.0 μg/ml LPS in 40 μl of RPMI medium (without FBS) in 96-well, black walled, clear bottom cell culture plates coated with poly-D-lysine (VWR #734-0317) • 2. Add 5 μl compound (8 points half-log dilution, with 10 μM top dose) or vehicle (DMSO 0.1% FAC) to the appropriate wells • 3. Incubate for 3 hrs at 37° C. in 5% CO2 • 4. Add 5 μl nigericin (Sigma #N7143) (FAC 5 μM) to all wells • 5. Incubate for 1 hr at 37° C. and 5% CO2 • 6. At the end of the incubation period, spin plates at 300×g for 3 mins and remove supernatant • 7. Then add 50 μl of resazurin (Sigma #R7017) (FAC 100 μM resazurin in RPMI medium without FBS) and incubate plates for a further 1-2 hrs at 37° C. and 5% CO2 • 8. Plates were read in an Envision reader at Ex 560 nm and Em 590 nm • 9. IC50 data is fitted to a non-linear regression equation (log inhibitor vs response-variable slope 4-parameters)

NLRP3 [2] = biological target: T1, NLRP3; assay: Human whole blood IL1β release assay (LPS + nigericin, AlphaLisa IL-1β); type: cell-based; design: Human whole blood in Li-heparin tubes was obtained from healthy donors from a volunteer donor panel; from tissue; host or cells: human whole blood from healthy donors; settings: NLRP3 inhibitory activity, 1 μg/ml LPS, 10 μM nigericin, IL-1β release, read-out: HWB IC50
Protocol: For systemic delivery, the ability to inhibit NLRP3 when the compounds are present within the bloodstream is of great importance. For this reason, the NLRP3 inhibitory activity of a number of compounds in human whole blood was investigated in accordance with the following protocol.
Human whole blood in Li-heparin tubes was obtained from healthy donors from a volunteer donor panel. • 1. Plate out 80 μl of whole blood containing 1 μg/ml of LPS in 96-well, clear bottom cell culture plate (Corning #3585) • 2. Add 10 μl compound (8 points half-log dilution with 10 μM top dose) or vehicle (DMSO 0.1% FAC) to the appropriate wells • 3. Incubate for 3 hrs at 37° C., 5% CO2 • 4. Add 10 μl Nigericin (Sigma #N7143) (10 μM FAC) to all wells • 5. Incubate for 1 hr at 37° C., 5% CO2 • 6. At the end of the incubation period, spin plates at 300×g for 5 mins to pellet cells and remove 20 μl of supernatant and add to 96-well v-bottom plates for IL-1β analysis (note: these plates containing the supernatants can be stored at −80° C. to be analysed at a later date) • 7. IL-1β was measured according to the manufacturer protocol (Perkin Elmer-AlphaLisa IL-1β Kit AL220F-5000) • 8. IC50 data is fitted to a non-linear regression equation (log inhibitor vs response-variable slope 4-parameters)

T1 sequence (Q96P20 whole entry): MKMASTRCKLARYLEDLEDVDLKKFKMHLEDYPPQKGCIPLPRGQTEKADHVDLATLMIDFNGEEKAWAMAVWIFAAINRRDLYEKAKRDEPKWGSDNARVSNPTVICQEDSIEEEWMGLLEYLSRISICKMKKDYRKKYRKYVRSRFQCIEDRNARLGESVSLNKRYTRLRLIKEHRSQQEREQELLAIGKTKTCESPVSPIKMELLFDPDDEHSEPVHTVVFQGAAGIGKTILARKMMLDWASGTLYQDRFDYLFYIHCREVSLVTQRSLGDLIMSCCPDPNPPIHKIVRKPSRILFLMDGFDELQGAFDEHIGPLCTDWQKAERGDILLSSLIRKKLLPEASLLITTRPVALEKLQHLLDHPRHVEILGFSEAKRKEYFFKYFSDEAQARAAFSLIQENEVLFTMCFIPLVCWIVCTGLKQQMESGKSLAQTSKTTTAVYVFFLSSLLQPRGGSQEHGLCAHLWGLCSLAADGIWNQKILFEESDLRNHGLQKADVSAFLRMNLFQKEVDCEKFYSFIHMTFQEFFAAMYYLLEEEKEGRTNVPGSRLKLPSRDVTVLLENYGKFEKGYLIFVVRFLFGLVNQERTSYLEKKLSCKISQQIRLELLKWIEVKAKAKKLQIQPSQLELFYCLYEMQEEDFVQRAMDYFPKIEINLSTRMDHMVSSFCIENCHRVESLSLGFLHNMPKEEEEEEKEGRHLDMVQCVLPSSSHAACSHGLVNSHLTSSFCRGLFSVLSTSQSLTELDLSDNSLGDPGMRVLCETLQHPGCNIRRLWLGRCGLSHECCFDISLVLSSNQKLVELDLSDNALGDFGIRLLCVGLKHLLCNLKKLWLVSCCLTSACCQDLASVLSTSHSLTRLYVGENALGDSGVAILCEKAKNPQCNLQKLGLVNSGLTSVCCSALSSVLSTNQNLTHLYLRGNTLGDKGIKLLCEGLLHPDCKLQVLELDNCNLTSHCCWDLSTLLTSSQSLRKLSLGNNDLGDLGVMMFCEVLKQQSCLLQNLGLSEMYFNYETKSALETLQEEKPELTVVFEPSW

SMILES	IC50 (NLRP3 [1]) [nM]	IC50 (NLRP3 [2]) [nM]
CCn1nc(S(=O)(=O)NC(=O)Nc2c(C(C)C)cc(F)cc2C(C)C)cc1CN(C)C [Example 51, 5-((Dimethylamino)methyl)-1-ethyl-N-((4-fluoro-2,6-diisopropylphenyl)carbamoyl)-1H-pyrazole-3-sulfonamide]	160 to 640	< 400
CC(C)c1cc(F)cc(-c2cccnc2)c1NC(=O)NS(=O)(=O)c1cc(CN(C)C)n(C(C)C)n1 [Example 54, 5-((Dimethylamino)methyl)-N-((4-fluoro-2-isopropyl-6-(pyridin-3-yl)phenyl)carbamoyl)-1-isopropyl-1H-pyrazole-3-sulfonamide]	160 to 640	400 to 800
CC(C)n1nc(S(=O)(=O)NC(=O)Nc2c3c(cc4c2CCC4)CCC3)cc1CN(C)CC(F)F [Example 56, 5-(((2,2-Difluoroethyl)(methyl)amino)methyl)-N-((1,2,3,5,6,7-hexahydro-s-indacen-4-yl)carbamoyl)-1-isopropyl-1H-pyrazole-3-sulfonamide, Sodium Salt]	40 to 160	3200 to 10000
CN(C)C1(c2cc(S(=O)(=O)NC(=O)Nc3c4c(cc5c3CCC5)CCC4)nn2C)CC1 [Example 58, 5-(1-(Dimethylamino)cyclopropyl)-N-((1,2,3,5,6,7-hexahydro-s-indacen-4-yl)carbamoyl)-1-methyl-1H-pyrazole-3-sulfonamide, Sodium Salt]	40 to 160	800 to 1600
CN(C)CCc1cc(S(=O)(=O)NC(=O)Nc2c3c(cc4c2CCC4)CCC3)nn1C [Example 59, 5-(2-(Dimethylamino)ethyl)-N-((1,2,3,5,6,7-hexahydro-s-indacen-4-yl)carbamoyl)-1-methyl-1H-pyrazole-3-sulfonamide]	160 to 640	800 to 1600
CCC(c1cc(S(=O)(=O)NC(=O)Nc2c(C(C)C)cc(F)cc2C(C)C)nn1C(C)C)N(C)C (stereo not drawn) [Example 62, 5-(1-(Dimethylamino)propyl)-N-((4-fluoro-2,6-diisopropylphenyl)carbamoyl)-1-isopropyl-1H-pyrazole-3-sulfonamide]	160 to 640	400 to 800
CC(C)c1cc(F)cc(-c2ccccc2)c1NC(=O)NS(=O)(=O)c1cc(CN(C)C)n(C)n1 [Example 66, 5-((Dimethylamino)methyl)-N-((5-fluoro-3-isopropyl-[1,1′-biphenyl]-2-yl)carbamoyl)-1-methyl-1H-pyrazole-3-sulfonamide]	160 to 640	400 to 800
CNCc1cc(S(=O)(=O)NC(=O)Nc2c3c(cc4c2CCC4)CCC3)nn1C [Example 67, N-((1,2,3,5,6,7-Hexahydro-s-indacen-4-yl)carbamoyl)-1-methyl-5-((methylamino)methyl)-1H-pyrazole-3-sulfonamide]	40 to 160	400 to 800
CN1CC(O)(c2cc(S(=O)(=O)NC(=O)Nc3c4c(cc5c3CCC5)CCC4)nn2C)C1 [Example 75, N-((1,2,3,5,6,7-Hexahydro-s-indacen-4-yl)carbamoyl)-5-(3-hydroxy-1-methylazetidin-3-yl)-1-methyl-1H-pyrazole-3-sulfonamide]	160 to 640	800 to 1600
Cn1nc(S(=O)(=O)NC(=O)Nc2c3c(cc4c2CCC4)CCC3)cc1CN1CCCC1 [Example 78, N-((1,2,3,5,6,7-Hexahydro-s-indacen-4-yl)carbamoyl)-1-methyl-5-(pyrrolidin-1-ylmethyl)-1H-pyrazole-3-sulfonamide, Sodium Salt]	40 to 160	400 to 800
CC(C)c1cc(F)cc(C(C)C)c1NC(=O)NS(=O)(=O)c1cc(CN2CC(F)C2)n(C)n1 [Example 79, N-((4-Fluoro-2,6-diisopropylphenyl)carbamoyl)-5-((3-fluoroazetidin-1-yl)methyl)-1-methyl-1H-pyrazole-3-sulfonamide]	640 to 2560	800 to 1600

Now from value to compound:

IC50 (NLRP3 [1]) [nM]	IC50 (NLRP3 [2]) [nM]	SMILES
40 to 160	< 400	COc1cc(-c2cc(F)cc(C(C)C)c2NC(=O)NS(=O)(=O)c2cc(CN(C)C)n(C(C)C)n2)ccn1 [Example 47, 5-((Dimethylamino)methyl)-N-((4-fluoro-2-isopropyl-6-(2-methoxypyridin-4-yl)phenyl)carbamoyl)-1-isopropyl-1H-pyrazole-3-sulfonamide]
< 40	< 400	COc1cc(-c2cc(F)cc(C(C)C)c2NC(=O)NS(=O)(=O)c2cc(CN(C)C)n(C)n2)ccn1 [Example 48, 5-((Dimethylamino)methyl)-N-((4-fluoro-2-isopropyl-6-(2-methoxypyridin-4-yl)phenyl)carbamoyl)-1-methyl-1H-pyrazole-3-sulfonamide]
< 40	400 to 800	CC(C)n1nc(S(=O)(=O)NC(=O)Nc2c3c(cc4c2CCC4)CCC3)cc1CN1CCC1 [Example 53, 5-(Azetidin-1-ylmethyl)-N-((1,2,3,5,6,7-hexahydro-s-indacen-4-yl)carbamoyl)-1-isopropyl-1H-pyrazole-3-sulfonamide]
40 to 160	1600 to 3200	CC(C)c1cc(Cl)cc(C(C)C)c1NC(=O)NS(=O)(=O)c1cc(CN(C)C)n(C(C)C)n1 [Example 55, N-((4-Chloro-2,6-diisopropylphenyl)carbamoyl)-5-((dimethylamino)methyl)-1-isopropyl-1H-pyrazole-3-sulfonamide]
< 40	1600 to 3200	CC(C)n1nc(S(=O)(=O)NC(=O)Nc2c3c(cc4c2CCC4)CCC3)cc1CN(C)CCF [Example 57, 5-(((2-Fluoroethyl)(methyl)amino)methyl)-N-((1,2,3,5,6,7-hexahydro-s-indacen-4-yl)carbamoyl)-1-isopropyl-1H-pyrazole-3-sulfonamide, Sodium Salt]
< 40	400 to 800	CN(C)C1CCCn2nc(S(=O)(=O)NC(=O)Nc3c4c(cc5c3CCC5)CCC4)cc21 (stereo not drawn) [Example 60, 4-(Dimethylamino)-N-((1,2,3,5,6,7-hexahydro-s-indacen-4-yl)carbamoyl)-4,5,6,7-tetrahydropyrazolo[1,5-a]pyridine-2-sulfonamide]
< 40	800 to 1600	CCC(c1cc(S(=O)(=O)NC(=O)Nc2c(C(C)C)cc(Cl)cc2C(C)C)nn1C)N(C)C (stereo not drawn) [Example 64, N-((4-Chloro-2,6-diisopropylphenyl)carbamoyl)-5-(1-(dimethylamino)propyl)-1-methyl-1H-pyrazole-3-sulfonamide]
< 40	< 400	CCC(c1cc(S(=O)(=O)NC(=O)Nc2c(C(C)C)cc(F)cc2C(C)C)nn1C)N(C)C (stereo not drawn) [Example 65, 5-(1-(Dimethylamino)propyl)-N-((4-fluoro-2,6-diisopropylphenyl)carbamoyl)-1-methyl-1H-pyrazole-3-sulfonamide]
< 40	400 to 800	CC(C)n1nc(S(=O)(=O)NC(=O)Nc2c3c(cc4c2CCC4)CCC3)cc1CN(C)C [Example 68, 5-((Dimethylamino)methyl)-N-((1,2,3,5,6,7-hexahydro-s-indacen-4-yl)carbamoyl)-1-isopropyl-1H-pyrazole-3-sulfonamide]
< 40	< 400	CCC(c1cc(S(=O)(=O)NC(=O)Nc2c3c(cc4c2CCC4)CCC3)nn1C)N(C)C (stereo not drawn) [Example 74, 5-(1-(Dimethylamino)propyl)-N-((1,2,3,5,6,7-hexahydro-s-indacen-4-yl)carbamoyl)-1-methyl-1H-pyrazole-3-sulfonamide]
